Measurements taken from patent publication US12121523B2, “Method of treatment of attention deficit/hyperactivity disorder (ADHD)” (Supernus Pharmaceuticals, Inc., priority 2008, dated 2024).

Tests used:
[1] = target: noradrenergic reuptake transporters (Homo sapiens, UniProt P23975); settings: Tatsumi et al 1997; quantity type not given; cited from earlier work
5-HT1B (h) = 5-HT1B (h) (Homo sapiens, UniProt P28222)
Procedure: The apparent dissociation constants for antagonists Kb were calculated using the modified Cheng Prusoff equation.

5-HT4e (h) = 5-HT4e (h) (Homo sapiens, UniProt Q13639); settings: 10 μM viloxazine; [3H]GR 113808 0.3 nM; 60 min/37° C.
Sequence of 5-HT4e (h) (Q13639 1-378 isoform Q13639-5): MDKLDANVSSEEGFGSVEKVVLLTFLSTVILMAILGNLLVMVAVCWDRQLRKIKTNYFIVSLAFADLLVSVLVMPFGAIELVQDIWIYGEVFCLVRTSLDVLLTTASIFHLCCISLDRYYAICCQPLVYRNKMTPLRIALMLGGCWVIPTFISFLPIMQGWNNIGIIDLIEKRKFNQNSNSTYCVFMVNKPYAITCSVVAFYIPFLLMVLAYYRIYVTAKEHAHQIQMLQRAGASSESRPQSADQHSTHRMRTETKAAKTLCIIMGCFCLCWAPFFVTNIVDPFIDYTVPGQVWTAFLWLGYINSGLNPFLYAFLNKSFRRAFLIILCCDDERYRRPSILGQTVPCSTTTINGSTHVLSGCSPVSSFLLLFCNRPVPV
Text: (§1) Briefly, recombinant 5-HT1B OR 5-HT7 receptors were expressed in a CHO cell line. The receptors were then saturated with a tritiated receptor-specific ligand at concentrations known to be saturating.

5-HT6 (h) = 5-HT6 (h) (Homo sapiens, UniProt P50406); settings: 10 μM viloxazine; [3H]LSD 2 nM; 120 min/37° C.
Sequence of 5-HT6 (h) (P50406 whole entry): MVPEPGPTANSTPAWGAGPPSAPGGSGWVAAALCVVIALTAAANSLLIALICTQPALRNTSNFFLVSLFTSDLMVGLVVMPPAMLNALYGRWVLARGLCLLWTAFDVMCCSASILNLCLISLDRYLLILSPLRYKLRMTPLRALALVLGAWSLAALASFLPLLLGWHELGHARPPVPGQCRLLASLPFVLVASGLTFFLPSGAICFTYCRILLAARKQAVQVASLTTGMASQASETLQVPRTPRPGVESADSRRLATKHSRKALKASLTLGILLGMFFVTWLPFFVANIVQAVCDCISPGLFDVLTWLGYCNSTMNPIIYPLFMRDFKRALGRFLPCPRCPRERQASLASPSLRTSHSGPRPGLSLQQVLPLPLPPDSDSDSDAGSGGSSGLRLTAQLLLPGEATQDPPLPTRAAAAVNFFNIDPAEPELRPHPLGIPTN
Text: as §1

5-HT1D = 5-HT1D (Rattus norvegicus, UniProt P28565); settings: 10 μM viloxazine; [3H]serotonin 1 nM; 60 min/22° C.
Sequence of 5-HT1D (P28565 whole entry): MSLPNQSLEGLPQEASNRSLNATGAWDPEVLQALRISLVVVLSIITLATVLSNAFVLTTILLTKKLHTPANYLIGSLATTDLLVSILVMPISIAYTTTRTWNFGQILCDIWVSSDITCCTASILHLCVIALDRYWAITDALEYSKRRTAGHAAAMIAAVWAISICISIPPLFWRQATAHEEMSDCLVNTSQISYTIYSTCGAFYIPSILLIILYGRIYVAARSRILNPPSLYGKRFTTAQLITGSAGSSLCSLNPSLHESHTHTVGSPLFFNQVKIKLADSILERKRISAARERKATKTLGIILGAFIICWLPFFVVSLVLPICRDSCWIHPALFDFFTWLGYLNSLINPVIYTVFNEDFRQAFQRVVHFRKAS
Text: as §1

5-HT3 (h) = 5-HT3 (h) (Homo sapiens, UniProt P46098); settings: 10 μM viloxazine; [3H]BRL 43694 0.5 nM; 120 min/22° C.
Sequence of 5-HT3 (h) (P46098 24-478): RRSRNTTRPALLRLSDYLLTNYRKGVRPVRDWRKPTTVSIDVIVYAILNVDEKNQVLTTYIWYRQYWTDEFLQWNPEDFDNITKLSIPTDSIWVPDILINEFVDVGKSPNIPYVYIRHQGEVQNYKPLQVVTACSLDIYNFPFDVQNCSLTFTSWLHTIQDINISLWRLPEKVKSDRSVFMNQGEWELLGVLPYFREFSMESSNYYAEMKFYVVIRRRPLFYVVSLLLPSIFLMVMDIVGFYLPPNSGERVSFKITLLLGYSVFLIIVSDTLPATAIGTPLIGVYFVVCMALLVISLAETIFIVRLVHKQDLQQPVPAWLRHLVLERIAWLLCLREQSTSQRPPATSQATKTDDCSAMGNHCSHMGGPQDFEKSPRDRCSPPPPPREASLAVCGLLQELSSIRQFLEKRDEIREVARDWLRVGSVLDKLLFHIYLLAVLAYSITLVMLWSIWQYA
Text: as §1

5-HT5A (h) = 5-HT5A (h) (Homo sapiens, UniProt P47898); settings: 10 μM viloxazine; [3H]LSD 1 nM; 60 min/37° C.
Sequence of 5-HT5A (h) (P47898 whole entry): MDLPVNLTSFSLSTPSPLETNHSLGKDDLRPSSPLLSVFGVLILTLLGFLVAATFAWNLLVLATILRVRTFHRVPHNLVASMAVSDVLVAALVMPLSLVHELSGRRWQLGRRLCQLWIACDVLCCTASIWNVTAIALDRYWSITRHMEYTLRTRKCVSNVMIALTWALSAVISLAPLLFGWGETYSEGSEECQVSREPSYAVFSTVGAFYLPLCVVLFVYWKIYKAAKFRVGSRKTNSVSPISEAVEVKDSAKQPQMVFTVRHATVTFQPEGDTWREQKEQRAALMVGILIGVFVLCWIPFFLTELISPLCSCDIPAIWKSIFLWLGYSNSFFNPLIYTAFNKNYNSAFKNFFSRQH
Text: as §1

Sequence of 5-HT1B (h) (P28222 whole entry): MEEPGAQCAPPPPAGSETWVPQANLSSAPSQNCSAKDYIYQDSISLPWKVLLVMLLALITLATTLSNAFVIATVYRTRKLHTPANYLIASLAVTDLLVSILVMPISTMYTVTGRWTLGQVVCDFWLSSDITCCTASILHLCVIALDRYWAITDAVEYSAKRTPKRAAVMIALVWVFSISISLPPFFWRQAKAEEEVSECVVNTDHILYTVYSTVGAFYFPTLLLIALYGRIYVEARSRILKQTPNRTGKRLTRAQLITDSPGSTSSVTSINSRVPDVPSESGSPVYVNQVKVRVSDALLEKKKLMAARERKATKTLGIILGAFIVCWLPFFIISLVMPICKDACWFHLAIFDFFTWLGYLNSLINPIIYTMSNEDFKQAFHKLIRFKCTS
Sequence of noradrenergic reuptake transporters (P23975 whole entry): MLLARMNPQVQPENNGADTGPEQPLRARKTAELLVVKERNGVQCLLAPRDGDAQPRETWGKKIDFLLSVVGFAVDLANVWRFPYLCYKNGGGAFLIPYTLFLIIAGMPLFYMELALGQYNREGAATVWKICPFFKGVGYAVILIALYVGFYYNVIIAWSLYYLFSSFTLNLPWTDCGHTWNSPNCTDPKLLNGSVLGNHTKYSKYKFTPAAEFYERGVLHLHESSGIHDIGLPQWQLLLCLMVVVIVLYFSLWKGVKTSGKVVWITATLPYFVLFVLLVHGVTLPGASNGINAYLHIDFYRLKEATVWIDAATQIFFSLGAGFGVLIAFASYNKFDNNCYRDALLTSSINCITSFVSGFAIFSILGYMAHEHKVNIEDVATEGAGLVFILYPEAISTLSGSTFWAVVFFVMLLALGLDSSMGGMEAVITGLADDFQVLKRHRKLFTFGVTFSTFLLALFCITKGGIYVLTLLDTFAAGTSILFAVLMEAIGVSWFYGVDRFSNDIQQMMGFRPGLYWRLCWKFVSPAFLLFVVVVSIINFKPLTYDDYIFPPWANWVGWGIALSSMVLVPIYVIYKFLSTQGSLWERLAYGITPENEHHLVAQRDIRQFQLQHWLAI

## Viloxazine
[1]
  inhibition of noradrenergic reuptake transporters: 155 nM
5-HT1B (h)
  antagonist activity (in words): specific antagonist activity
5-HT4e (h)
  % Inhib.: 16%
5-HT6 (h)
  % Inhib.: 6%
5-HT1D
  % Inhib.: 18%
5-HT3 (h)
  % Inhib.: 18%
5-HT5A (h)
  % Inhib.: 15%
